Reference: patent US20250059156A1, “THERAPEUTIC ALKALOID COMPOUNDS” (Sensorium Therapeutics, Inc., priority 2022, published 2025)

Experiments:
5-HT transporter (SERT) = 5-HT transporter (SERT) (Homo sapiens (Human), UniProt P31645); settings: concentration response curve; cited from earlier work
C57/Bl6 mice = assay: Behavioral evaluation assay (SmartCube test); format: in vivo; settings: FIG. 1
Description: The CNS-like activity of test compounds after acute intraperitoneal administration was evaluated in naïve C57/Bl6 mice using the SmartCube® test.
Male C57/Bl6 mice from Taconic Laboratories (Germantown, NY) were used. Upon receipt, mice were group-housed in Optimice® ventilated cages with 4 mice per cage. Mice were acclimated to the colony room for at least one week prior to test, and subsequently tested at approximately 8-9 weeks of age. All animals were examined, handled, and weighed prior to initiation of the study to assure adequate health and suitability and to minimize nonspecific stress associated with manipulation. During the course of the study, 12/12 light/dark cycles were maintained. The room temperature was 20-23° C. with a relative humidity maintained between 30-70%. Chow and water were provided ad libitum for the duration of the study.
Test compounds were formulated in 5% Pharmasolve, 30% P3 (1:1:1 PEG200, PEG400, propylene glycol) and 65% saline. […]
For class and subclass analysis, a reference dataset has been built from hundreds of drug doses in multiple drug classes plus a control group. […] Multiple analyses of the data was performed to quantitatively produce independent predictions of drug class, and drug subclass. The behavioral signatures of the test drug were evaluated using these classifiers to predict potential therapeutic utility.

[1] = in vivo; cited from earlier work
SERT = SERT (Homo sapiens (Human), UniProt P31645); assay: SERT inhibition assay (Neurotransmitter Transporter Fluorescence assay); format: cell-based; settings: class symbols; legend in nM/micromolar
Description: SERT inhibition was measured using a Neruotransmitter Transportation Fluorescence assay. Briefly, stable 5HHH cells were prepared in a 384 microwell plate. Compounds were prepared by in assay buffer (20 mM HEPES, 0.1% BSA). The compounds were added to the plated cells and incubated for 30 minutes at 37° C. 25 μL of dye solution (Molecular Devices Neurotransmitter Transporter Uptake Assay Kit) was added per well and incubated for 30 minutes at 37° C. The plates were then read on a plate reader.

PDE4A1A = PDE4A1A (Homo sapiens (Human), UniProt P27815); assay: PDE4 percent inhibition assay; format: biochemical; settings: for inhibition at 10 µM: read-out: PDE4 Isoform % Inhibition @ 10 μM PDE4A1A
Description: (§1) PDE4 assay kit (BPS Bioscience, San Diego, CA), as described below.
(§2) • 1) Dilute 20 μM FAM-Cyclic-3′, 5′-AMP stock 100-fold with PDE buffer to make a 200 nM solution. Make only sufficient quantity needed for the assay; store remaining 20 μM stock solution in aliquots at −20° C. • 2) Add 25 μl of FAM-Cyclic-3′,5′-AMP (200 nM) to each well designated “Positive Control”, “Test Inhibitor”, and “Substrate Control”. • 3) Add 20 μl of PDE assay buffer to each well designated “Substrate Control” and 45 μl of PDE assay buffer to each well designated “Blank”. • 4) Add 5 μl of inhibitor solution to each well designated “Test Inhibitor”. For the wells labeled “Positive Control”, “Substrate Control” and “Blank”, add 5 μl of the same solution without inhibitor (inhibitor buffer). • 5) Thaw PDE on ice. Upon first thaw, briefly spin tube containing enzyme to recover the full contents of the tube. • 6) Dilute PDE4 in PDE buffer to 7.5 pg/μl (0.15 ng/reaction)*. Initiate reaction by adding 20 μl of PDE4 (7.5 pg/μl) to the wells designated “Positive Control” and “Test Inhibitor.” • 7) Incubate at room temperature for 1 hour.
(§3) • 1) Mix binding agent thoroughly and dilute binding agent 1:100 with binding agent diluent. • 2) Add 100 μl diluted binding agent to each microwell. Incubate at room temperature for 1 hour with slow shaking. • 3) Read the fluorescent polarization of the sample in a microtiter-plate reader equipped for the measurement of fluorescence polarization, capable of excitation at wavelengths ranging from 485±5 nm and detection of emitted light ranging from 528±10 nm. Blank value is subtracted from all other values.
(§4) 100 µM dilutions of the test compounds were prepared in assay buffer (10% DMSO concentration) and 5 μl of the dilution was added to a 50 μl reaction so that the final concentration of DMSO is 1% in all of reactions.
(§5) The enzymatic reactions were conducted at room temperature for 60 minutes in a 50 μl mixture containing PDE assay buffer, 100 nM FAM-cAMP, a PDE enzyme and the test compound.
(§6) After the enzymatic reaction, 100 Is of a binding solution (1:100 dilution of the binding agent with the binding agent diluent) was added to each reaction and the reaction was performed at room temperature for 60 minutes.
(§7) Fluorescence intensity was measured at an excitation of 485 nm and an emission of 528 nm using a Tecan Infinite M1000 microplate reader.

PDE4B2 = PDE4B2 (Homo sapiens (Human), UniProt Q07343); assay: PDE4 percent inhibition assay; format: biochemical; settings: for inhibition at 10 µM: read-out: PDE4 Isoform % Inhibition @ 10 μM PDE4B2
Description: as §1, §2, §3, §4, §5, §6, §7

PDE4C1 = PDE4C1 (Homo sapiens (Human), UniProt Q08493); assay: PDE4 percent inhibition assay; format: biochemical; settings: for inhibition at 10 µM: read-out: PDE4 Isoform % Inhibition @ 10 μM PDE4C1
Description: as §1, §2, §3, §4, §5, §6, §7

PDE4D2 = PDE4D2 (Homo sapiens (Human), UniProt Q08499); assay: PDE4 percent inhibition assay; format: biochemical; settings: for inhibition at 10 µM: read-out: PDE4 Isoform % Inhibition @ 10 μM PDE4D2
Description: as §1, §2, §3, §4, §5, §6, §7

Sequence of PDE4A1A (P27815 other isoform, or with tags, fused parts or gaps): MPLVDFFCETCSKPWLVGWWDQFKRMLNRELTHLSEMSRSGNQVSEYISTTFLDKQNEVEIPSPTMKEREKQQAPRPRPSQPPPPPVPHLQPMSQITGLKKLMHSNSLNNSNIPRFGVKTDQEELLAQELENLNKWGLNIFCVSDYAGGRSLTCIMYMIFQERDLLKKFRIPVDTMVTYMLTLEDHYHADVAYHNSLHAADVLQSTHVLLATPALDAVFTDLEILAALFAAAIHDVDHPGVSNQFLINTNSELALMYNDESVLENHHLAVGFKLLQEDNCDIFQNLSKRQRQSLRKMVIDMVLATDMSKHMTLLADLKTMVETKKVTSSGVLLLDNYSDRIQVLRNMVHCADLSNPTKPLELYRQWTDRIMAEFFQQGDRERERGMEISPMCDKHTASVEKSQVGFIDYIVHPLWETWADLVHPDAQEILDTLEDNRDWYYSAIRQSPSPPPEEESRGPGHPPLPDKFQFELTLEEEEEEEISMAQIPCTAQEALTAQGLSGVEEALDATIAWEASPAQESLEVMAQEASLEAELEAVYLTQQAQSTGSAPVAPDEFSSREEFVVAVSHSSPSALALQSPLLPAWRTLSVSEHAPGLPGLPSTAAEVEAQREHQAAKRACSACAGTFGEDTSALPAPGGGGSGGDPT
Sequence of PDE4D2 (Q08499 303-809, change not shown): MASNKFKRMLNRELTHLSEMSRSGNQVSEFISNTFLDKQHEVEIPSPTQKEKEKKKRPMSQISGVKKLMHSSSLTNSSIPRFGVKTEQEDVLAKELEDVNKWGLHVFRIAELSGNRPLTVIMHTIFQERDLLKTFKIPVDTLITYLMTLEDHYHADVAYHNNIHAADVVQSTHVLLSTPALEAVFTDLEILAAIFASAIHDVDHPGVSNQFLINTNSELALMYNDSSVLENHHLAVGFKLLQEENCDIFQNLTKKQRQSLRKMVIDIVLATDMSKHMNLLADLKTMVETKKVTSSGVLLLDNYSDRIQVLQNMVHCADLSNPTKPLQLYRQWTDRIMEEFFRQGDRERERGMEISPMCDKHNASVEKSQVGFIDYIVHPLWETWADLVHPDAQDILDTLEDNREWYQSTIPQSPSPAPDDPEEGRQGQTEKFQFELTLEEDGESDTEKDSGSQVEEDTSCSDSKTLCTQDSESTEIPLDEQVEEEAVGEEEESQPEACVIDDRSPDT
Sequence of PDE4B2 (Q07343 other isoform, or with tags, fused parts or gaps): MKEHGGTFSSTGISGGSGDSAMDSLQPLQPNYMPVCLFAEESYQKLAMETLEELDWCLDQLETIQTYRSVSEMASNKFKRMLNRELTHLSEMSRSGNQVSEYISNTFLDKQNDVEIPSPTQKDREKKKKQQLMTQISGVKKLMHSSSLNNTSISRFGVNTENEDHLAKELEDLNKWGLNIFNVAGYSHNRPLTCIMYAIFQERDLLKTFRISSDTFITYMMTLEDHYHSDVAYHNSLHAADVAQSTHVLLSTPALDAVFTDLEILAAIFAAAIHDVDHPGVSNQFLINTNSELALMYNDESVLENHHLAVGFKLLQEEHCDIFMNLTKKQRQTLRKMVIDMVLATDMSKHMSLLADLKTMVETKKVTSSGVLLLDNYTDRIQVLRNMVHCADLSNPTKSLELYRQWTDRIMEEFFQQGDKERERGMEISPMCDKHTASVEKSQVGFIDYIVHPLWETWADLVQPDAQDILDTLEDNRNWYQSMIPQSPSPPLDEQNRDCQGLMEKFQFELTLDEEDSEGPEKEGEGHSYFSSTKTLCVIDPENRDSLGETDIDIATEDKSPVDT
Sequence of PDE4C1 (Q08493 whole entry, canonical isoform): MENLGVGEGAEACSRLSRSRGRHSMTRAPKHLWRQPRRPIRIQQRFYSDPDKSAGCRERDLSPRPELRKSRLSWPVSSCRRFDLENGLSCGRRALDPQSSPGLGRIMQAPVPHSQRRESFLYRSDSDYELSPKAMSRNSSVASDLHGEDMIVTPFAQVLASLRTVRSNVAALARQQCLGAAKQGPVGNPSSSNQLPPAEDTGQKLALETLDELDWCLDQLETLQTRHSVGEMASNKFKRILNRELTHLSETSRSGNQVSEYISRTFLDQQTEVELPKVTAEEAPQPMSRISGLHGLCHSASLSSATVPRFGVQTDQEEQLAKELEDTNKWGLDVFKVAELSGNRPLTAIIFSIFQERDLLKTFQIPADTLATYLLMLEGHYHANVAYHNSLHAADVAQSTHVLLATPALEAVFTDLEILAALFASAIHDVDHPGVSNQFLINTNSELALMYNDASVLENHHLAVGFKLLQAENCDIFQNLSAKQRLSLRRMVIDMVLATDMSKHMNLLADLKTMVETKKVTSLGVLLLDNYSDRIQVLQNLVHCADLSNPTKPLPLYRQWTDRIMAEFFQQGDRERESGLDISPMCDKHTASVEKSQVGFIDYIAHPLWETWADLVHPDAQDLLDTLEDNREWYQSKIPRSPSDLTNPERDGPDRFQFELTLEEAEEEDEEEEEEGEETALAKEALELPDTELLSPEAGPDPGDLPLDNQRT
Sequence of SERT (P31645 whole entry, species assumed): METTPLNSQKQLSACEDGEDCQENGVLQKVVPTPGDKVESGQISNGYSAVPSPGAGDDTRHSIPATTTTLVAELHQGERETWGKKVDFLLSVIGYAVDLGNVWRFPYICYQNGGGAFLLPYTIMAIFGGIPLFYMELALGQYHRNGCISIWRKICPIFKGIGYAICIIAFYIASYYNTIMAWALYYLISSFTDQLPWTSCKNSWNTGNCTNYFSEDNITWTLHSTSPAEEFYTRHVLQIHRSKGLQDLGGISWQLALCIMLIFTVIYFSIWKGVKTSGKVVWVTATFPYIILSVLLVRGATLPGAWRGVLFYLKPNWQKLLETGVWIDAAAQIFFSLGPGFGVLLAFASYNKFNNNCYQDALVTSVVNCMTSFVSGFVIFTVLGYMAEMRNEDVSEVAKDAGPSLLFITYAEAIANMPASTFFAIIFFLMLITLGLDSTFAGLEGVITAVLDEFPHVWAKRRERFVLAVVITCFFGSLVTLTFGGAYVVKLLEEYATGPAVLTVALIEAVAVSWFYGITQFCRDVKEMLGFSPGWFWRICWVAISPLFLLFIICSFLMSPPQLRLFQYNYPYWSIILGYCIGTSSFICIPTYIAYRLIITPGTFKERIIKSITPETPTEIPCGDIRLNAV

In the case of `COc1ccc([C@@]23C=CC(=O)C[C@@H]2N(C)CC3)cc1OC` [Mesembrenone], the “5-HT transporter (SERT) nH” value (5-HT transporter (SERT)) is given as 1.0.
With `COc1ccc([C@@]23CC[C@@H](O)C[C@@H]2N(C)CC3)cc1OC` [Compound 018, (3aS,6R,7aS)-3a-(3,4-dimethoxyphenyl)-1-methyloctahydro-1H-indol-6-ol] the “behavioral phenotype compared to Compound 001” value (C57/Bl6 mice) was “different behavioral phenotype classification”.
In the case of `COc1ccc([C@@]23CCC(=O)C[C@@H]2N(C)CC3)cc1OC` [(−) mesembrine], the half-life in plasma [1] is given as “less than 2 hours”.
For `COc1ccc([C@]23CCN(C)[C@H]2CC2(CCO2)CC3)cc1OC` (stereo partly drawn) [Compound 118, (3aS,7aS)-3a-(3,4-dimethoxyphenyl)-1-methyloctahydrospiro[indole-6,2′-oxetane]], the IC50 (SERT) was less than 50 nM, the inhibition at 10 µM (PDE4A1A) was 30 to 50% and the inhibition at 10 µM (PDE4B2) was less than 30%. It also gave an inhibition at 10 µM (PDE4C1) of 30 to 50% and an inhibition at 10 µM (PDE4D2) of 30 to 50%.
With `COc1ccc([C@@]23CC[C@H](N4CCOCC4)C[C@@H]2N(C)CC3)cc1OC` [Compound 108, 4-((3aS,6S,7aS)-3a-(3,4-dimethoxyphenyl)-1-methyloctahydro-1H-indol-6-yl)morpholine] the IC50 (SERT) was 100 to 500 nM, the inhibition at 10 µM (PDE4A1A) was less than 30% and the inhibition at 10 µM (PDE4B2) was less than 30%. For the same compound, the inhibition at 10 µM (PDE4C1) was less than 30% and the inhibition at 10 µM (PDE4D2) was less than 30%.
Compound `COc1ccc([C@@]23CC[C@@H](N4CCCC4=O)C[C@@H]2N(C)CC3)cc1OC` [Compound 110, 1-((3aS,6R,7aS)-3a-(3,4-dimethoxyphenyl)-1-methyloctahydro-1H-indol-6-yl)pyrrolidin-2-one] has an IC50 (SERT) of less than 50 nM, an inhibition at 10 µM (PDE4A1A) of less than 30% and an inhibition at 10 µM (PDE4B2) of less than 30%. It also gave an inhibition at 10 µM (PDE4C1) of less than 30% and an inhibition at 10 µM (PDE4D2) of less than 30%.
In the case of `COc1ccc([C@@]23CC[C@@H](N4CCOCC4)C[C@@H]2N(C)CC3)cc1OC` [Compound 109, 4-((3aS,6R,7aS)-3a-(3,4-dimethoxyphenyl)-1-methyloctahydro-1H-indol-6-yl)morpholine], the IC50 (SERT) is reported as 100 to 500 nM, the inhibition at 10 µM (PDE4A1A) is reported as less than 30% and the inhibition at 10 µM (PDE4B2) is reported as less than 30%. The inhibition at 10 µM (PDE4C1) was less than 30% and the inhibition at 10 µM (PDE4D2) was less than 30%.
For `COc1ccc([C@@]23CCN(C)[C@@H]2CC(=O)C[C@@H]3c2ccccc2)cc1OC` [Compound 206], the IC50 (SERT) was greater than 1000 nM, the “PDE4 Isoform % Inhibition @ 10 μM PDE4A1A” value (PDE4A1A; 10 μM) was “A (A if the % inhibition is greater than or equal to 70%)” and the “PDE4 Isoform % Inhibition @ 10 μM PDE4B2” value (PDE4B2; 10 μM) was “A (A if the % inhibition is greater than or equal to 70%)”. For the same compound, the “PDE4 Isoform % Inhibition @ 10 μM PDE4C1” value (PDE4C1; 10 μM) was “B (B if the percent inhibition is 50-70%)” and the “PDE4 Isoform % Inhibition @ 10 μM PDE4D2” value (PDE4D2; 10 μM) was “A (A if the % inhibition is greater than or equal to 70%)”.
Compound `COc1ccc([C@]23CCN(C)[C@H]2CC(=O)C=C3c2ccccc2)cc1OC` (racemic) [Compound 201, rac-(3aS,7aS)-3a-(3,4-dimethoxyphenyl)-1-methyl-4-phenyl-1,2,3,3a,7,7a-hexahydro-6H-indol-6-one] has an IC50 (SERT) greater than 1000 nM, an inhibition at 10 µM (PDE4A1A) of no less than 70% and an inhibition at 10 µM (PDE4B2) of no less than 70%. For the same compound, the inhibition at 10 µM (PDE4C1) was 30 to 50% and the inhibition at 10 µM (PDE4D2) was no less than 70%.
